Measurements from publication PMC8583776, “PD-L1 Inhibitors: Different Classes, Activities, and Mechanisms of Action” (International Journal of Molecular Sciences, 2021).
Where two headings read alike, the source gives them in different places.

Columns and labels:
[1] = target: T1, PD-1/PD-L1 immune checkpoint (Homo sapiens, UniProt Q9NZQ7); details: cited from earlier work; for ICB Assay %RLUmax: % of activation by therapeutic anti-PD-L1 antibody; for EC50: read-out: ICB Assay EC50
T1 construct: host or cells: CHO-K1 (CHO/TCRAct/PD-L1) cells and Jurkat Effector Cells

mPD-L1 = tested on: mPD-L1; parameters: method as in PMID 33437940; details: cited from earlier work; for Target Specificity mPD-L1: mouse PD-L1
hPD-1/hPD-L1 complex [2] = target: T2, hPD-1/hPD-L1 complex (Homo sapiens, UniProt Q9NZQ7); details: cited from earlier work
T2 construct: Tag1 or Tag2 (kit tag, identity not disclosed); purchased CisBio (Codolet, France)

human PD-L1 [3] = tested on: human PD-L1; parameters: method as in PMID 29069777, PMID 28613862, PMID 27083005, PMID 33619272; details: in vitro PD-L1 dimerization in the presence of the molecule; cited from earlier work
hPD-L1 = tested on: hPD-L1; parameters: method as in PMID 33437940; details: cited from earlier work
PD-L1 = tested on: PD-L1; parameters: method as in PMID 33619272; details: cited from earlier work
MC38-hPD-L1 tumor model = tested on: MC38-hPD-L1 tumor model; parameters: method as in PMID 33619272; details: humanized double knock-in mice for PD-1 and PD-L1; cited from earlier work
hPD-1/hPD-L1 complex [4] = target: T2, hPD-1/hPD-L1 complex; assay: HTRF assay of PD-1/PD-L1 complex formation blockade; type: binding; details: Figure A2, 5 nM hPD-L1, 50 nM hPD-1
Description: We performed a comparison of the in vitro targeting of the PD-1/PD-L1 immune checkpoint with molecules selected from various classes, including small molecules, macrocyclic peptides, and monoclonal antibodies. For this, two standardized and popular techniques used in the available literature were applied: the protein-based Homogeneous Time-Resolved Fluorescence (HTRF) method and the cell-based Immune Checkpoint Blockade (ICB) assay. Using these methods, three parameters describing the in vitro potency of the tested compounds were determined: (i) IC50 values of the blockade of PD-1/PD-L1 complex formation (from HTRF); (ii) EC50 values of the reactivation of the effector T cells blocked with PD-L1 (from ICB); and (iii) maximal activation levels of the effector T cells, calculated as the % of the activation in the presence of therapeutic anti-PD-L1 antibody atezolizumab or durvalumab. […]
The certified CisBio (Codolet, France) HTRF assay was used to determine the IC50 values of the compounds according to the manufacturer’s guidelines. […] IC50 of tested compounds was determined for two individual dilution series unless stated otherwise. After mixing, the plate was left for 2 h incubation at room temperature and later measured using Tecan Spark 20M multimode microplate reader (Tecan, Männedorf, Switzerland). […]

human PD-L1 [5] = details: cited from earlier work
PD-1 = details: cited from earlier work
PD-1/PD-L1 complex = details: various assays; cited from earlier work
human PBMCs = tested on: human PBMCs; parameters: method as in PMID 31374878; details: cited from earlier work
mouse T cells = tested on: mouse T cells; parameters: method as in PMID 31374878; details: cited from earlier work
[6] = other laboratories, read-out: HTRF IC50 Other
[7] = authors' laboratory, read-out: HTRF IC50 Ours

T1 sequence (Q9NZQ7 19-290): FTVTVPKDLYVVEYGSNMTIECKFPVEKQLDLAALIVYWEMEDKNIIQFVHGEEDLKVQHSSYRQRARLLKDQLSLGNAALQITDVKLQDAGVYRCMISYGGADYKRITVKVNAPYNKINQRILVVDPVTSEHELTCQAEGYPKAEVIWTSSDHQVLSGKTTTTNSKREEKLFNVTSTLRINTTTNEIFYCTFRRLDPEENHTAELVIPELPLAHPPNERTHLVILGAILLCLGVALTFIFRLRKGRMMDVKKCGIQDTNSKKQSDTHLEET
T2 sequence (Q9NZQ7 19-238 limits assumed, one chain of several): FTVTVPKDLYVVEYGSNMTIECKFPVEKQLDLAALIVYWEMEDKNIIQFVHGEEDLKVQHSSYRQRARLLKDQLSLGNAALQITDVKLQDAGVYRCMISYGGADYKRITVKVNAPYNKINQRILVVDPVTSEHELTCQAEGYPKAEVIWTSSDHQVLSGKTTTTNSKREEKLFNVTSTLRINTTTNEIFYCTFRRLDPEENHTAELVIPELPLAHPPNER

Q: With CC(=O)NCCNCc1cc(C)c(OCc2cccc(-c3cccc(COc4cc(OCc5cccc(C#N)c5)c(CNCCNC(C)=O)cc4C)c3C)c2C)cc1OCc1cccc(C#N)c1 [2b] as the compound, how does the “ICB Assay %RLUmax” value [1] read?
A: The value was 93%.

Q: And the EC50 [1]?
A: The EC50 was 763 nM.

Q: And the “Target Specificity mPD-L1” value (mPD-L1)?
A: The value was “No”.

Q: Which results are given for O=C(O)[C@H](CO)NCc1ccc2c(Nc3cccc(-c4ccc5c(c4)OCCO5)c3Cl)nsc2c1 [CH20]?
A: IC50 (hPD-1/hPD-L1 complex [2]; [6]): 8.5 nM; ICB Assay %RLUmax [1]: 93%; EC50 [1]: 5600 nM

Q: Which IC50 (hPD-1/hPD-L1 complex [2]; [7]) does the source give for COc1cc(-c2cccc(-c3ccc4c(c3)OCCO4)c2Cl)ccc1CNC(CO)(CO)CO [8j] here?
A: Its IC50 is < 1 nM.

Q: And the “ICB Assay %RLUmax” value [1]?
A: Its value is 87%.

Q: What about the EC50 [1] of the same compound?
A: The EC50 was 1030 nM.

Q: What about the “Target Specificity mPD-L1” value (mPD-L1) of the same compound?
A: Its value is “No”.

Q: With Cc1c(COc2cc(OCc3cccc(C#N)c3)c(CN3C[C@H](O)C[C@@H]3C(=O)O)cc2Cl)cccc1-c1ccc2c(c1)OCCO2 [BMS-1166] as the compound, how does the “Target Specificity mPD-L1” value (mPD-L1) read?
A: Its value is “No”.

Q: Which IC50 (hPD-1/hPD-L1 complex [2]; [7]) does the source give for “p101: macrocyclic peptide PD-L1 inhibitor disclosed by Bristol Myers Squibb (FFIVIRDRVFRCG)” here?
A: Its IC50 is 27.8 nM.

Q: What about the IC50 (hPD-1/hPD-L1 complex [2]; [6]) of the same compound?
A: The IC50 was 120 nM.

Q: What about the EC50 [1] of the same compound?
A: The EC50 was 7500 nM.

Q: With O=C(O)[C@@H]1CCCCN1Cc1ccc(OCc2cccc(-c3ccccc3)c2Br)c(Br)c1 [2k] as the compound, how does the IC50 (hPD-1/hPD-L1 complex [2]; [7]) read?
A: Its IC50 is 14.9 nM.

Q: And the “ICB Assay %RLUmax” value [1]?
A: The value was 87%.

Q: What about the EC50 [1] of the same compound?
A: Its EC50 is 6630 nM.

Q: What about the “Target Specificity mPD-L1” value (mPD-L1) of the same compound?
A: Its value is “No”.

Q: Which IC50 (hPD-1/hPD-L1 complex [2]; [6]) does the source give for CC(=O)NCCNCc1cc(C)c(OCc2cccc(-c3cccc4c3CCN4CCCN3CCC(O)CC3)c2C)cc1OCc1cccc(C#N)c1 [A20] here?
A: Its IC50 is 17 nM.

Q: What about the “ICB Assay %RLUmax” value [1] of the same compound?
A: The value was 55%.

Q: What about the EC50 [1] of the same compound?
A: Its EC50 is 430 nM.

Q: Which “ICB Assay %RLUmax” value [1] does the source give for O=C(O)[C@H](CO)NCc1cc(Br)c(OCc2cccc(-c3ccccc3)c2Br)cc1OCc1ccc2nonc2c1 [L7] here?
A: The value was 75%.

Q: What about the EC50 [1] of the same compound?
A: Its EC50 is 375 nM.

Q: Which results are given for “p71: macrocyclic peptide PD-L1 inhibitor disclosed by Bristol Myers Squibb”?
A: IC50 (hPD-1/hPD-L1 complex [2]; [6]): 7 nM; EC50 [1]: 293 nM

Q: Which IC50 (hPD-1/hPD-L1 complex [2]; [6]) does the source give for COc1cc(-c2cccc(-c3cccc(-c4ccc(CN5CC(C(=O)O)C5)c(OC)c4)c3C)c2C)ccc1CN1CC(C(=O)O)C1 [C13] here?
A: Its IC50 is 4.23 nM.

Q: And the “ICB Assay %RLUmax” value [1]?
A: The value was 100%.

Q: And the EC50 [1]?
A: The EC50 was 104 nM.

Q: With “atezolizumab: therapeutic anti-PD-L1 antibody” as the compound, how does the “ICB Assay %RLUmax” value [1] read?
A: The value was 100%.

Q: And the EC50 [1]?
A: The EC50 was 0.14 nM.

Q: And the “PD-L1 Dimerization” value (human PD-L1 [3])?
A: The value was “No”.

Q: What about the “blockade of human PD-L1” value (hPD-L1) of the same compound?
A: Its value is “blocks both human and mouse PD-L1”.

Q: What about the “blockade of mouse PD-L1” value (mPD-L1) of the same compound?
A: The value was “blocks both human and mouse PD-L1”.

Q: With Cc1c(NC(=O)c2ccc(CNCCO)cn2)cccc1-c1cccc(NC(=O)c2ccc(CNCCO)cn2)c1C [comp. A] as the compound, how does the IC50 (hPD-1/hPD-L1 complex [2]; [6]) read?
A: Its IC50 is 0.4 nM.

Q: And the “ICB Assay %RLUmax” value [1]?
A: Its value is 86.3%.

Q: And the EC50 [1]?
A: The EC50 was 18.9 nM.

Q: What about the “Target Specificity mPD-L1” value (mPD-L1) of the same compound?
A: The value was “No”.

Q: And the “dimerization of PD-L1 in a cellular context” value (PD-L1)?
A: The value was “dimerization of PD-L1”.

Q: And the in vivo bioactivity (MC38-hPD-L1 tumor model)?
A: The in vivo bioactivity was “succeeded in showing the bioactivity”.

Q: For “durvalumab: therapeutic anti-PD-L1 antibody”, which IC50 (hPD-1/hPD-L1 complex [4]; read-out: HTRF IC50) is on record?
A: The IC50 was 0.0966 nM.

Q: And the IC50 (hPD-1/hPD-L1 complex [4]; [7])?
A: Its IC50 is 0.1 nM.

Q: What about the “ICB Assay %RLUmax” value [1] of the same compound?
A: Its value is 100%.

Q: And the EC50 [1]?
A: Its EC50 is 0.23 nM.

Q: And the “PD-L1 Dimerization” value (human PD-L1 [3])?
A: Its value is “No”.

Q: And the “blockade of human PD-L1” value (hPD-L1)?
A: Its value is “blocks the human PD-L1”.

Q: What about the “blockade of mouse PD-L1” value (mPD-L1) of the same compound?
A: Its value is “not the mouse PD-L1”.

Q: What about the “Target Specificity mPD-L1” value (mPD-L1) of the same compound?
A: The value was “No”.

Q: With nivolumab: therapeutic antibody as the compound, how does the IC50 (hPD-1/hPD-L1 complex [2]; [6]) read?
A: Its IC50 is 0.2 nM.

Q: What about the “ICB Assay %RLUmax” value [1] of the same compound?
A: Its value is 100%.

Q: What about the EC50 [1] of the same compound?
A: The EC50 was 1.27 nM.

Q: With COc1nc(OCc2cccc(-c3ccccc3)c2C)ccc1CNCCNC(C)=O [BMS-202] as the compound, how does the “Target Specificity mPD-L1” value (mPD-L1) read?
A: The value was “No”.

Q: Which results are given for C[C@@H](O)[C@H](NC(=O)N[C@@H](CC(N)=O)c1nc([C@@H](N)CO)no1)C(=O)O [CA-170]?
A: activity in PD-1/PD-L1-focused cell-based ICB assay [1]: inactive; direct binding to human PD-L1 (human PD-L1 [5]): direct binder of neither human PD-L1 nor PD-1; direct binding to PD-1 (PD-1): direct binder of neither human PD-L1 nor PD-1; dissociation of the PD-1/PD-L1 complex (PD-1/PD-L1 complex): unable to dissociate the PD-1/PD-L1 complex; activation of human PBMCs (human PBMCs): increase the activation of human PBMCs; activation of mouse T cells (mouse T cells): increase the activation of human PBMCs and mouse T cells

Q: Which IC50 (hPD-1/hPD-L1 complex [2]; [6]) does the source give for “p57: macrocyclic peptide PD-L1 inhibitor disclosed by Bristol Myers Squibb” here?
A: The IC50 was 9 nM.

Q: And the EC50 [1]?
A: Its EC50 is 566 nM.
